Source: ChEMBL document CHEMBL1129677, “3 alpha-(4'-substituted phenyl)tropane-2 beta-carboxylic acid methyl esters: novel ligands with high affinity and selectivity at the dopamine transporter” (J Med Chem, 1996)

Assays:
[1] = molecular target: Sodium-dependent dopamine transporter (Rattus norvegicus, UniProt P23977); assay: Inhibition of [3H]WIN-35428 binding to Dopamine transporter
[2] = molecular target: Sodium-dependent serotonin transporter (Rattus norvegicus, UniProt P31652); assay: Binding potency for Serotonin transporter using [3H]- paroxetine
Chain of Sodium-dependent serotonin transporter (P31652 whole entry): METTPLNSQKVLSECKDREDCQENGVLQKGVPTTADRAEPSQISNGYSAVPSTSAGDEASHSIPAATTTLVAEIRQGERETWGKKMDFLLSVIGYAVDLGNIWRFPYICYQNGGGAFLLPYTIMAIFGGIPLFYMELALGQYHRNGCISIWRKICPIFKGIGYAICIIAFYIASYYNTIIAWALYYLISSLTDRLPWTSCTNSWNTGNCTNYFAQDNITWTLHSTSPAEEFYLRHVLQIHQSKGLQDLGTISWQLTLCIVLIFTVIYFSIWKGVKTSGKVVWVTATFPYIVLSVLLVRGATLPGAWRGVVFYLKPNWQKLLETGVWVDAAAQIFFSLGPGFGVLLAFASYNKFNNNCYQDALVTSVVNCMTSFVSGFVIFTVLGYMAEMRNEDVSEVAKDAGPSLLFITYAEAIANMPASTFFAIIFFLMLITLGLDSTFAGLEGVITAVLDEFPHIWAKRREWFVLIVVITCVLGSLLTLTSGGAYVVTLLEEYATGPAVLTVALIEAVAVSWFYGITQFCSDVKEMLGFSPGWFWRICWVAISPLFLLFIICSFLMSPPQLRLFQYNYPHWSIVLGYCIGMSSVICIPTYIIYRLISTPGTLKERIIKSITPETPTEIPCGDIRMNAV

[3] = molecular target: Norepinephrine transporter (Rattus norvegicus, UniProt Q9WTR4); assay: Binding potency for Norepinephrine transporter using [3H]NE
Chain of Norepinephrine transporter (Q9WTR4 whole entry): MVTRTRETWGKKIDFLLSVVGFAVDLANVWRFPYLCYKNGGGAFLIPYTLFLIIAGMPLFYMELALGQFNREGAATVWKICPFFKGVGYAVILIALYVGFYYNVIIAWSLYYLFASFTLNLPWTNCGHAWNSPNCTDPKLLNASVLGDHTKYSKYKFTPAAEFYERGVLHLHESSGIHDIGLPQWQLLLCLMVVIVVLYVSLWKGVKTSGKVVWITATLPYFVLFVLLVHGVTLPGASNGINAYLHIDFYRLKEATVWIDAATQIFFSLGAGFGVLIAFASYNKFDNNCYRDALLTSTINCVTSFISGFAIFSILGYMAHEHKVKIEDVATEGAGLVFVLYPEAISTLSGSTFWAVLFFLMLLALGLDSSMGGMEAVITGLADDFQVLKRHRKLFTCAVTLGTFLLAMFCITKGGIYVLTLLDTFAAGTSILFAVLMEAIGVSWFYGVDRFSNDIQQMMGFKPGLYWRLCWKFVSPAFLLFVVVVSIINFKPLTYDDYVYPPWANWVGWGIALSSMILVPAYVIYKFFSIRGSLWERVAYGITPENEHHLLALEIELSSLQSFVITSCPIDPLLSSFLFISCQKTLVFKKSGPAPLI

Chain of Sodium-dependent dopamine transporter (P23977 whole entry): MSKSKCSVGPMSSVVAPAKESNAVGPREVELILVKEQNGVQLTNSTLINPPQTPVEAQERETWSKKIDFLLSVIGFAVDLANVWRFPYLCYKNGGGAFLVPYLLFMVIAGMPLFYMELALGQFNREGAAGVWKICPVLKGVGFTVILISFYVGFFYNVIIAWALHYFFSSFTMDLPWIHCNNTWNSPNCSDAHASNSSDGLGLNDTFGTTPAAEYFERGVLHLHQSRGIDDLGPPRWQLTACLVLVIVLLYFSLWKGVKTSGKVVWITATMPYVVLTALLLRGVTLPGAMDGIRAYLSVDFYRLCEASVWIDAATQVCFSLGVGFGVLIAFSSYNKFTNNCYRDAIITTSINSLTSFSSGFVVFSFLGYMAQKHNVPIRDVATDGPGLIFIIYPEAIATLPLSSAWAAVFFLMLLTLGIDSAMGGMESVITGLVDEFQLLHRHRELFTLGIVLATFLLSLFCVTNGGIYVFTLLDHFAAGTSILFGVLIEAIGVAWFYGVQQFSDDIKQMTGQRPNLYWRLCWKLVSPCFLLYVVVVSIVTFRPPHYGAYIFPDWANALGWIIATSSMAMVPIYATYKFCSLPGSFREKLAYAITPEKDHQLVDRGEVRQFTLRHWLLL

Row | SMILES | IC50 [1] | IC50 [2] | IC50 [3]
1 | COC(=O)C1C(c2ccc(Cl)cc2)CC2CCC1N2C (stereo in doubt; 2c) | 2.4 nM | 998 nM | –
2 | COC(=O)C1C(c2ccc(C)cc2)CC2CCC1N2C (centres undefined) | 10.2 nM | – | 275 nM
3 | COC(=O)[C@@H]1C2CC[C@H](C[C@@H]1c1ccccc1)N2C (stereo in doubt; 2e) | 101 nM | – | –
4 | COC(=O)[C@H]1[C@@H](c2ccc(F)cc2)C[C@H]2CC[C@H]1N2C (stereo in doubt; 2a) | – | 5060 nM | –
5 | COC(=O)[C@H]1[C@@H](c2ccc(F)cc2)C[C@H]2CC[C@H]1N2C (stereo in doubt; 1a) | – | 810 nM | –
6 | COC(=O)C1C(c2ccc(I)cc2)CC2CCC1N2C (stereo in doubt; form 1) | 2.85 nM | – | 52.4 nM
